Earlier results as cited in patent US20070196322A1, “Method of preparing the colon for virtual colonoscopy” (Braintree Laboratories Inc., priority 2005, published 2007).
Like-named read-outs stand apart in the source and are kept apart here.

System: patient

CC(=O)Oc1ccc(C(c2ccc(OC(C)=O)cc2)c2ccccn2)cc1 [Bisacodyl, bisacodyl]
time to bowel movement (enemas): about 20 minutes | time to bowel movement (oral administration of a tablet): three to six | time to bowel movement (oral administration of a tablet, listed as bisacodyl): three to about six | time to bowel movement (suppositories): about an hour
